Test results as given in patent US20050159460A1, “Peptide isosteres containing a heterocycle useful in the treatment of alzheimer's disease” (Elan Pharmaceuticals, priority 2001, published 2005).

In the case of CC(C)(C)OC(=O)[C@@H](C(N)c1ccccc1)[C@@H](O)C[C@@H](Cc1ccccc1)c1ncc2n1C(O)C(C)(C)C2=O (stereo partly drawn) [Example 31, 3-[(1R,3S,4S)-1-benzyl-4-t-butoxycarbonyl-amino-3-hydroxy-5-phenylpentyl]-6,6-dimethyl-5-hydroxy-pyrrolo-[1,2-c]-imidazol-7-one], the melting point is reported as 88 to 90 °C.
